Measurements: PubChem BioAssay (NCI)
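Test compounds were applied to cells in 96-well plates for 48 hours at 5 doses. TGI marks complete inhibition of growth.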

What was measured:
Experiment in all cases: NCI tumour cell line growth inhibition, 48 h
[1] = tested on: DU-145 prostate
[2] = tested on: MCF7 breast
[3] = tested on: NCI-H522 lung
[4] = tested on: MDA-MB-231 breast
[5] = tested on: ACHN renal
[6] = tested on: LOX IMVI melanoma
[7] = tested on: HCC-2998 colon
[8] = tested on: IGROV1 ovarian
[9] = tested on: MOLT-4 leukemia
[10] = tested on: TK-10 renal
[11] = tested on: KM12 colon
[12] = tested on: SNB-19 CNS
[13] = tested on: MDA-N
[14] = tested on: SW-620 colon
[15] = tested on: T-47D breast
[16] = tested on: NCI-H226 lung
[17] = tested on: OVCAR-5 ovarian
[18] = tested on: PC-3 prostate
[19] = tested on: HOP-92 NSCLC
[20] = tested on: HT29 colon
[21] = tested on: HOP-62 NSCLC
[22] = tested on: K-562 leukemia
[23] = tested on: HCT-15 colon
[24] = tested on: HCT-116 colon
[25] = tested on: SK-MEL-2 melanoma
[26] = tested on: 786-0 renal
[27] = tested on: HL-60(TB) leukemia
[28] = tested on: SF-539 CNS
[29] = tested on: MALME-3M melanoma
[30] = tested on: A498 renal
[31] = tested on: OVCAR-3 ovarian
[32] = tested on: UO-31 renal
[33] = tested on: SF-295 CNS
[34] = tested on: BT-549 breast
[35] = tested on: RXF 393 renal
[36] = tested on: NCI-H460 lung
[37] = tested on: A549 NSCLC
[38] = tested on: M14 melanoma
[39] = tested on: NCI/ADR-RES ovarian
[40] = tested on: SR leukemia
[41] = tested on: SK-MEL-28 melanoma
[42] = tested on: CAKI-1 renal
[43] = tested on: U251 CNS
[44] = tested on: SN12C renal
[45] = tested on: HS 578T breast
[46] = tested on: OVCAR-8 ovarian
[47] = tested on: OVCAR-4 ovarian
[48] = tested on: UACC-62 melanoma
[49] = tested on: COLO 205 colon
[50] = tested on: NCI-H23 lung
[51] = tested on: UACC-257 melanoma
[52] = tested on: CCRF-CEM leukemia
[53] = tested on: SK-MEL-5 melanoma
[54] = tested on: SF-268 CNS
[55] = tested on: RPMI-8226 leukemia
[56] = tested on: SNB-75 CNS
[57] = tested on: MDA-MB-435
[58] = tested on: EKVX NSCLC
[59] = tested on: SK-OV-3 ovarian

Measured: TGI

N#Cc1cc2c(n(C3OC(CO)C(O)C(O)C3O)c1=S)CCCCCC2 (stereo not drawn)
not listed: [58] | [59]
> 100 µM: all other assays above

CN1C(=O)C(O)C[C@@H]1c1ccccc1 (stereo partly drawn)
not listed: [22] | [30] | [36]
> 100 µM: all other assays above
